According to patent US10597388B2, “Pyridazinone herbicides” (FMC CORPORATION, priority 2014, dated 2020):

Key:
Test in all cases: Test C greenhouse herbicide test, pre- and postemergence
Format in all cases: in vivo
[1] = tested on: barnyardgrass (Echinochloa crus-galli)
How it was run: (§1)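 Seeds sown in loam–sand blend treated preemergence; plants in peat-based medium sprayed postemergence at 2–18 cm (1- to 4-leaf stage); chemicals in non-phytotoxic solvent with surfactant. Greenhouse 13–15 d, then visual rating versus controls on 0–100 scale (0 no effect, 100 complete control).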

[2] = tested on: blackgrass (Alopecurus myosuroides)
How it was run: as §1

corn (Zea mays) = tested on: corn (Zea mays)
How it was run: as §1

[3] = tested on: crabgrass, large (large crabgrass, Digitaria sanguinalis)
How it was run: as §1

[4] = tested on: johnsongrass (Sorghum halepense)
How it was run: as §1

[5] = tested on: lambsquarters (Chenopodium album)
How it was run: as §1

[6] = tested on: morningglory (Ipomoea coccinea)
How it was run: as §1

[7] = tested on: nutsedge, yellow (yellow nutsedge, Cyperus esculentus)
How it was run: as §1

[8] = tested on: pigweed (Amaranthus retroflexus)
How it was run: as §1

[9] = tested on: ragweed (common ragweed, Ambrosia elatior)
How it was run: as §1

[10] = tested on: ryegrass, Italian (Italian ryegrass, Lolium multiflorum)
How it was run: as §1

soybean (Glycine max) = tested on: soybean (Glycine max)
How it was run: as §1

[11] = tested on: velvetleaf (Abutilon theophrasti)
How it was run: as §1

[12] = tested on: waterhemp (common waterhemp, Amaranthus rudis)
How it was run: as §1

[13] = tested on: wheat (winter wheat, Triticum aestivum)
How it was run: as §1

[14] = Postemergence, 31 g ai/ha, scale 0 to 100 (0 no effect, 100 complete control)
[15] = Postemergence, 125 g ai/ha, scale 0 to 100, 0 is no effect, 100 is complete control
[16] = Postemergence, 250 g ai/ha, scale 0 to 100, 0 no effect, 100 complete control, 13 to 15 d
[17] = Preemergence, 31 g ai/ha, scale 0 to 100, 0 is no effect, 100 is complete control
[18] = Preemergence, 62 g ai/ha, scale 0 to 100, 0 is no effect, 100 is complete control
[19] = Preemergence, 125 g ai/ha, scale 0 to 100, 0 is no effect, 100 is complete control
[20] = Preemergence, 250 g ai/ha, scale 0 to 100, 0 no effect, 100 complete control
[21] = postemergence, 62 g ai/ha, scale 0 to 100, 0 no effect, 100 complete control

## CC(=O)Oc1c(C)nn(C)c(=O)c1-c1c(C)sc2ccc(Cl)cc12 [Compound 108]
[1]; [14]
  Plant response rating, Barnyardgrass: 20
[1]; [15]
  Plant response rating, Barnyardgrass: 40
[1]; [16]
  Plant response rating, Barnyardgrass: 60
[1]; [17]
  Plant response rating, Barnyardgrass: 5
[1]; [18]
  Plant response rating, Barnyardgrass: 35
[1]; [19]
  Plant response rating, Barnyardgrass: 35
[1]; [20]
  Barnyardgrass plant response rating: 85
[1]; [21]
  Barnyardgrass plant response rating: 35
[2]; [14]
  Plant response rating, Blackgrass: 15
[2]; [15]
  Plant response rating, Blackgrass: 35
[2]; [16]
  Plant response rating, Blackgrass: 55
[2]; [17]
  Plant response rating, Blackgrass: 10
[2]; [18]
  Plant response rating, Blackgrass: 0
[2]; [19]
  Plant response rating, Blackgrass: 60
[2]; [20]
  Blackgrass plant response rating: 85
[2]; [21]
  Blackgrass plant response rating: 35
Corn (Zea mays); [14]
  Plant response rating, Corn: 5
Corn (Zea mays); [15]
  Plant response rating, Corn: 25
Corn (Zea mays); [16]
  Plant response rating, Corn: 30
Corn (Zea mays); [17]
  Plant response rating, Corn: 5
Corn (Zea mays); [18]
  Plant response rating, Corn: 10
Corn (Zea mays); [19]
  Plant response rating, Corn: 5
Corn (Zea mays); [20]
  Corn plant response rating: 15
Corn (Zea mays); [21]
  Corn plant response rating: 40
[3]; [14]
  Plant response rating, Crabgrass, Large: 5
[3]; [15]
  Plant response rating, Crabgrass, Large: 25
[3]; [16]
  Plant response rating, Crabgrass, Large: 40
[3]; [17]
  Plant response rating, Crabgrass, Large: 5
[3]; [18]
  Plant response rating, Crabgrass, Large: 70
[3]; [19]
  Plant response rating, Crabgrass, Large: 65
[3]; [20]
  Crabgrass, Large plant response rating: 70
[3]; [21]
  Crabgrass, Large plant response rating: 10
[4]; [14]
  Plant response rating, Johnsongrass: 0
[4]; [15]
  Plant response rating, Johnsongrass: 5
[4]; [16]
  Plant response rating, Johnsongrass: 5
[4]; [17]
  Plant response rating, Johnsongrass: 0
[4]; [18]
  Plant response rating, Johnsongrass: 5
[4]; [19]
  Plant response rating, Johnsongrass: 30
[4]; [20]
  Johnsongrass plant response rating: 20
[5]; [14]
  Plant response rating, Lambsquarters: 90
[5]; [15]
  Plant response rating, Lambsquarters: 98
[5]; [16]
  Plant response rating, Lambsquarters: 98
[5]; [17]
  Plant response rating, Lambsquarters: 85
[5]; [18]
  Plant response rating, Lambsquarters: 90
[5]; [19]
  Plant response rating, Lambsquarters: 90
[5]; [20]
  Lambsquarters plant response rating: 100
[6]; [14]
  Plant response rating, Morningglory: 98
[6]; [15]
  Plant response rating, Morningglory: 98
[6]; [16]
  Plant response rating, Morningglory: 100
[6]; [17]
  Plant response rating, Morningglory: 80
[6]; [18]
  Plant response rating, Morningglory: 90
[6]; [19]
  Plant response rating, Morningglory: 98
[6]; [20]
  Morningglory plant response rating: 98
[7]; [14]
  Plant response rating, Nutsedge, Yellow: 30
[7]; [15]
  Plant response rating, Nutsedge, Yellow: 70
[7]; [16]
  Plant response rating, Nutsedge, Yellow: 75
[7]; [17]
  Plant response rating, Nutsedge, Yellow: 35
[7]; [18]
  Plant response rating, Nutsedge, Yellow: 80
[7]; [19]
  Plant response rating, Nutsedge, Yellow: 70
[7]; [20]
  Nutsedge, Yellow plant response rating: 80
[8]; [14]
  Plant response rating, Pigweed: 90
[8]; [15]
  Plant response rating, Pigweed: 98
[8]; [16]
  Plant response rating, Pigweed: 98
[8]; [17]
  Plant response rating, Pigweed: 100
[8]; [18]
  Plant response rating, Pigweed: 100
[8]; [19]
  Plant response rating, Pigweed: 100
[8]; [20]
  Pigweed plant response rating: 100
[9]; [14]
  Plant response rating, Ragweed: 90
[9]; [15]
  Plant response rating, Ragweed: 98
[9]; [16]
  Plant response rating, Ragweed: 100
[9]; [17]
  Plant response rating, Ragweed: 75
[9]; [18]
  Plant response rating, Ragweed: 90
[9]; [19]
  Plant response rating, Ragweed: 98
[9]; [20]
  Ragweed plant response rating: 98
[10]; [14]
  Plant response rating, Ryegrass, Italian: 90
[10]; [15]
  Plant response rating, Ryegrass, Italian: 90
[10]; [16]
  Plant response rating, Ryegrass, Italian: 90
[10]; [17]
  Plant response rating, Ryegrass, Italian: 60
[10]; [18]
  Plant response rating, Ryegrass, Italian: 85
[10]; [19]
  Plant response rating, Ryegrass, Italian: 90
[10]; [20]
  Ryegrass, Italian plant response rating: 95
Soybean (Glycine max); [14]
  Plant response rating, Soybean: 10
Soybean (Glycine max); [15]
  Plant response rating, Soybean: 15
Soybean (Glycine max); [16]
  Plant response rating, Soybean: 15
Soybean (Glycine max); [17]
  Plant response rating, Soybean: 0
Soybean (Glycine max); [18]
  Plant response rating, Soybean: 0
Soybean (Glycine max); [19]
  Plant response rating, Soybean: 0
Soybean (Glycine max); [20]
  Soybean plant response rating: 0
[11]; [14]
  Plant response rating, Velvetleaf: 70
[11]; [15]
  Plant response rating, Velvetleaf: 100
[11]; [16]
  Plant response rating, Velvetleaf: 100
[11]; [17]
  Plant response rating, Velvetleaf: 50
[11]; [18]
  Plant response rating, Velvetleaf: 75
[11]; [19]
  Plant response rating, Velvetleaf: 85
[11]; [20]
  Velvetleaf plant response rating: 90
[12]; [14]
  Plant response rating, Waterhemp: 85
[12]; [15]
  Plant response rating, Waterhemp: 90
[12]; [16]
  Plant response rating, Waterhemp: 98
[12]; [17]
  Plant response rating, Waterhemp: 75
[12]; [18]
  Plant response rating, Waterhemp: 90
[12]; [19]
  Plant response rating, Waterhemp: 100
[12]; [20]
  Waterhemp plant response rating: 100
[13]; [14]
  Plant response rating, Wheat: 0
[13]; [15]
  Plant response rating, Wheat: 5
[13]; [16]
  Plant response rating, Wheat: 10
[13]; [17]
  Plant response rating, Wheat: 0
[13]; [18]
  Plant response rating, Wheat: 10
[13]; [19]
  Plant response rating, Wheat: 15
[13]; [20]
  Wheat plant response rating: 10
